Source: US20240199572A1, “COMPOUNDS, COMPOSITIONS, AND METHODS FOR TREATING TYPE 2 DIABETES AND DEMENTIA” (THE BOARD OF TRUSTEES OF THE UNIVERSITY OF ILLINOIS, priority 2021, published 2024)

Experiments:
CD1 mice = experiment: CD1 mice, three daily p.o. treatments, LXR agonist adverse effects; assay type: in vivo, mouse; conditions: 10 mg/kg p.o., three days
Description: Neutrophil Counts. […] After final dose, blood samples were run on an Advia 120 analyzer (Bayer) for neutrophil counts.

C57Bl/6 control mice = experiment: C57Bl/6 control mice, daily p.o. CL2-57 for one week; assay type: in vivo, mouse
PPARγ [1] = molecular target: T1, PPARγ (Homo sapiens, UniProt P37231); experiment: PPARγ NHR screen, antagonist mode; conditions: cell-based β-gal reporter assay, 10 μM
T1 sequence (P37231 1-505): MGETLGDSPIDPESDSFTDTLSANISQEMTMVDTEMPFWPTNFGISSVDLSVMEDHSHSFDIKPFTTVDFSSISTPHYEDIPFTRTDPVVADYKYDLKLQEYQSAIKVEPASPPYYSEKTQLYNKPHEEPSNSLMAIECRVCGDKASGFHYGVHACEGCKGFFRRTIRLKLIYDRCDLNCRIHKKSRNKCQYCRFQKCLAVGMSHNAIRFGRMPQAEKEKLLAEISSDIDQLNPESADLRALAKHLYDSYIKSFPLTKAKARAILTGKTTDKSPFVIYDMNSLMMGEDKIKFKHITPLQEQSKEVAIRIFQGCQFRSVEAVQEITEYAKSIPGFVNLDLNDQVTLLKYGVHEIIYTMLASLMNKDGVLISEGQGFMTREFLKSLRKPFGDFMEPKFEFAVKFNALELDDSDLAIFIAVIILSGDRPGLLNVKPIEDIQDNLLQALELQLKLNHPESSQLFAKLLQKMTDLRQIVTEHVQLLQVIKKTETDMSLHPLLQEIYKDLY
Experimental: Receptor Binding Assays. Nuclear hormone (NHR) assays were performed by DiscoverX (Fremont, CA) on their NHR-Scan platform of cell-based protein-protein interaction assays. This platform uses a […] reporter that activates upon interaction of full-length receptor protein with steroid coactivator receptor peptides. In agonist mode, activity of CL2-57 at 10 μM was compared to maximal activity of published positive control agonists; in antagonist mode, reduction in activity with 10 μM CL2-57 from that observed at […] of published agonists was quantified.

PPARγ [2] = molecular target: T2, PPARγ (Homo sapiens, UniProt P37231); experiment: LanthaScreen TR-FRET coactivator assay PPARγ (antagonism of pioglitazone); assay type: biochemical
T2 construct: purchased Thermo Fisher Scientific
T2 sequence (P37231 232-505 limits assumed): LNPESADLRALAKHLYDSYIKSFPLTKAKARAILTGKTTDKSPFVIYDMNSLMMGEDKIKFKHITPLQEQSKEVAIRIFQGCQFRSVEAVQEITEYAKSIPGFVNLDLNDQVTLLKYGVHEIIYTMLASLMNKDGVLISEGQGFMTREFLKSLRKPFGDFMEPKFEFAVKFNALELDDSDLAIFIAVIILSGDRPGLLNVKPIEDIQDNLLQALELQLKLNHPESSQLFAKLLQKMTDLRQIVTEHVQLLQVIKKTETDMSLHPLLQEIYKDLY
Experimental: TR-FRET Receptor Binding Assays. LanthaScreen” TR-FRET coactivator assay kits for LXRβ (Thermo Fisher Scientific) and PPARγ (Thermo Fisher Scientific) were performed according to manufacturer instructions using low-binding black 384-well plates and Synergy Neo2 plate reader. For the PPARγ assay, standardization was first performed with control agonist (pioglitazone), then run in two antagonist assays: dose-response of pioglitazone with or without a single concentration of CL2-57, and dose-response of CL2-57 cotreated with a single concentration (500 nM) of pioglitazone. Each compound dose was performed in quadruplicate on each plate, and each experiment was performed in triplicate.

CCOC(=O)c1cccc(NC(=O)c2sc(Cl)cc2S(=O)(=O)N(C)c2ccc(OCC)c(OCC)c2)c1 [CL2-57, ethyl 3-(5-chloro-3-(N-(3,4-diethoxyphenyl)-N-methylsulfamoyl)thiophene-2-carboxamido) benzoate]
Circulating neutrophil levels (CD1 mice): did not affect | Plasma TG (CD1 mice): did not affect | Plasma cholesterol (CD1 mice): did not affect | Hepatic lipogenesis (C57Bl/6 control mice; 10 mg/kg daily p.o. one week): low-magnitude increases | Plasma TG or cholesterol compared to vehicle controls (C57Bl/6 control mice; C57Bl/6 mice, one week daily p.o.): no changes | Functional mode at PPARγ (PPARγ [1]): weak antagonist | Activity in PPARγ TR-FRET binding assay (PPARγ [2]): Weak competitive antagonism | Right-shift in the TR-FRET dose-response for pioglitazone (PPARγ [2]; addition of 10 μM CL2-57, p<0.01): 2.1 fold | TR-FRET signal reduction (PPARγ [2]; constant pioglitazone concentration, CL2-57 at concentrations ≥1 μM): 20-45%
